From PMC9482650, “Quantitative fragmentomics allow affinity mapping of interactomes” (Nature Communications, 2022) come the findings set out here.

Read-outs that look alike come from different tables or passages of the source. Ends that are not written are not given here.

Targets include DLG1_2 PDZ (Homo sapiens, UniProt Q12959); LAP2 PDZ (Homo sapiens, UniProt Q96RT1); LIN7A PDZ (Homo sapiens, UniProt O14910); MAGI1_4 PDZ (Homo sapiens, UniProt Q96QZ7); MAST1 PDZ (Homo sapiens, UniProt Q9Y2H9); DLG4_3 PDZ (Homo sapiens, UniProt P78352); LRRC7 PDZ (Homo sapiens, UniProt Q96NW7); DLG2_1 PDZ (Homo sapiens, UniProt Q15700); MAGI2_3 PDZ (Homo sapiens, UniProt Q86UL8); TJP2_1 PDZ (Homo sapiens, UniProt Q9UDY2); MAGI2_2 PDZ (Homo sapiens, UniProt Q86UL8); RHPN1 PDZ (Homo sapiens, UniProt Q8TCX5); LNX1_4 PDZ (Homo sapiens, UniProt Q8TBB1); FRMPD2_1 PDZ (Homo sapiens, UniProt Q68DX3); DLG4_2 PDZ (Homo sapiens, UniProt P78352).

Holding throughout (assay): Holdup assay
Format in all cases: binding

The target of a further test is SNX27 PDZ (Homo sapiens, UniProt Q96L92). Conditions: composite holdup affinity; 0.00=below quantification threshold; read-out: COMP pKd (converted).
A further test deals with T1, DLG3_2 PDZ (Homo sapiens, UniProt Q92796).
T1 sequence (Q92796 226-311 limits assumed): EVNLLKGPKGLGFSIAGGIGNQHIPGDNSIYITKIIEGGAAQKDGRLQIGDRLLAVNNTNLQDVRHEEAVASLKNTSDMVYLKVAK

For another test, the target named is T2, ARHGEF11 PDZ (Homo sapiens, UniProt O15085).
T2 sequence (O15085 47-126 limits assumed): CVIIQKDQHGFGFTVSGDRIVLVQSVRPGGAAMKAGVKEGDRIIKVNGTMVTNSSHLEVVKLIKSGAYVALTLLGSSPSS

The target in a further test is T3, DLG3_1 PDZ (Homo sapiens, UniProt Q92796).
T3 sequence (Q92796 130-217 limits assumed): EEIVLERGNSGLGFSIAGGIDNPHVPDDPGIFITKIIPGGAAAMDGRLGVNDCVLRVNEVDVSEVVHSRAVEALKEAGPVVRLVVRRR

A further test has as its target T4, PTPN3 PDZ (Homo sapiens, UniProt P26045).
T4 sequence (P26045 510-582 limits assumed): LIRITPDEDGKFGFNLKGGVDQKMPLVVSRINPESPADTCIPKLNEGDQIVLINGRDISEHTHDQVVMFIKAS

In another test the target is GIPC1 PDZ (Homo sapiens, UniProt O14908). The text has this:
Supplement 41467_2022_33018_MOESM4_ESM.xlsx, sheet "PPI_convert" | column: GIPC1

A further test deals with T5, SCRIB2 PDZ (Homo sapiens, UniProt Q14160).
T5 sequence (Q14160 862-950 limits assumed): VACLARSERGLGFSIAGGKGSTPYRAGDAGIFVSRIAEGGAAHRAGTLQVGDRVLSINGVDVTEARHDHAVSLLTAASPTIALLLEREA

For another test, the target named is T6, TX1BP3 PDZ (Homo sapiens, UniProt O14907).
T6 sequence (O14907 15-112 limits assumed): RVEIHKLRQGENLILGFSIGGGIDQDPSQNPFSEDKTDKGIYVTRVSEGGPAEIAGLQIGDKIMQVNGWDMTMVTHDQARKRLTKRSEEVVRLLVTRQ

The next test has as its target CNKSR3 PDZ (Homo sapiens, UniProt Q6P9H4). From the text: Supplement 41467_2022_33018_MOESM4_ESM.xlsx, sheet "PPI_convert" | column: CNKSR3
Another test deals with T7, PDZRN4_1 PDZ (Homo sapiens, UniProt Q6ZMN7).
T7 sequence (Q6ZMN7 224-314 limits assumed): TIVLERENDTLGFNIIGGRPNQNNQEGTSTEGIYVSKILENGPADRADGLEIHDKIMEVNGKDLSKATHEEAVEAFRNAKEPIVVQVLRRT

The next test has as its target T8, SYNJ2BP PDZ (Homo sapiens, UniProt P57105).
T8 sequence (P57105 13-100 limits assumed): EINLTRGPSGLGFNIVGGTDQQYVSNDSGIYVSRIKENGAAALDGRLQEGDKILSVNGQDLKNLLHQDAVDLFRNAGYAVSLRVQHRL

The target in another test is PDLIM4 PDZ (Homo sapiens, UniProt P50479). Conditions: sheet PPI_convert; read-out: affinity to PDZ PDLIM4 (converted). The text has this:
Supplement 41467_2022_33018_MOESM4_ESM.xlsx, sheet "PPI_convert" | column: PDLIM4

In the next test the target is MLLT4 PDZ (Homo sapiens, UniProt P55196). Conditions: sheet PPI_convert; read-out: affinity to PDZ MLLT4 (converted). The text has this:
Supplement 41467_2022_33018_MOESM4_ESM.xlsx, sheet "PPI_convert" | column: MLLT4

[1] abbreviates: composite holdup affinity, 0.00=below quantification threshold, read-out: COMP pKd (converted).

Sequence of MAGI2_2 PDZ (Q86UL8 426-510 limits assumed): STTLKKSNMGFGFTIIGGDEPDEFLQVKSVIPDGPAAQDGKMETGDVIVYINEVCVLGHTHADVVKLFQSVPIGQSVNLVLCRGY
Sequence of DLG4_2 PDZ (P78352 160-246 limits assumed): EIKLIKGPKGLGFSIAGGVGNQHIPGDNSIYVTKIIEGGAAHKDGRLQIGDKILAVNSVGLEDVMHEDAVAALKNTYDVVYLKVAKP
Sequence of DLG4_3 PDZ (P78352 313-393 limits assumed): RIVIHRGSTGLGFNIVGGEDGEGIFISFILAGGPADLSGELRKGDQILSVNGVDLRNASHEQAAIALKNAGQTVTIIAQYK
Sequence of LAP2 PDZ (Q96RT1 1321-1410 limits assumed): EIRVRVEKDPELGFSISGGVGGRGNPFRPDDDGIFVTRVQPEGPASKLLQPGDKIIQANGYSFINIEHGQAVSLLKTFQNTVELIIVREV
Sequence of DLG1_2 PDZ (Q12959 319-405 limits assumed): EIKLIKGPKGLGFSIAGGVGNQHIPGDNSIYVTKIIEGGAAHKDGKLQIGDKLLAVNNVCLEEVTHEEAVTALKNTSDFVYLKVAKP
Sequence of MAST1 PDZ (Q9Y2H9 967-1055 limits assumed): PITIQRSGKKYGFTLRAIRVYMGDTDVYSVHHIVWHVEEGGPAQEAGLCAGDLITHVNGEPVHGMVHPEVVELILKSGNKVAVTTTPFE
Sequence of CNKSR3 PDZ (Q6P9H4 211-293 limits assumed): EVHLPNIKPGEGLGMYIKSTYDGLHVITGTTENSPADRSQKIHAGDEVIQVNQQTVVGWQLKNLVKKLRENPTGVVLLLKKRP
Sequence of LRRC7 PDZ (Q96NW7 1450-1535 limits assumed): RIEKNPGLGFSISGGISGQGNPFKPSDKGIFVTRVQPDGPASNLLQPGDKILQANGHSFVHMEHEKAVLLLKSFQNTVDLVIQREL
Sequence of LIN7A PDZ (O14910 108-190 limits assumed): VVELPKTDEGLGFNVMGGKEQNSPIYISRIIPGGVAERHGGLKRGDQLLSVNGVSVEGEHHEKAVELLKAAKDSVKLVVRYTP
Sequence of RHPN1 PDZ (Q8TCX5 513-592 limits assumed): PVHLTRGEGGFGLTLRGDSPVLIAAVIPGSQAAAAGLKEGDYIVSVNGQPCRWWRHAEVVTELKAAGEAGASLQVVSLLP
Sequence of TJP2_1 PDZ (Q9UDY2 33-120 limits assumed): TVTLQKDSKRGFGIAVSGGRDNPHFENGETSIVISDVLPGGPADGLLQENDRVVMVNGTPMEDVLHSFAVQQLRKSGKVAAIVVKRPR
Sequence of FRMPD2_1 PDZ (Q68DX3 775-861 limits assumed): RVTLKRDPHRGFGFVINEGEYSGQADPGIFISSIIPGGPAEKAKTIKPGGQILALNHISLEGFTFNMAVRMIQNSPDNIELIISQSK
Sequence of MAGI2_3 PDZ (Q86UL8 605-683 limits assumed): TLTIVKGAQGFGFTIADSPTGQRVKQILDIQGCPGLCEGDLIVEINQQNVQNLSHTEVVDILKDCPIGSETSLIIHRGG
Sequence of DLG2_1 PDZ (Q15700 98-184): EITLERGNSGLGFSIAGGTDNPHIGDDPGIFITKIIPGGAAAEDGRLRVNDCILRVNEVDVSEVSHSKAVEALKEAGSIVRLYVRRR
Sequence of GIPC1 PDZ (O14908 133-213 limits assumed): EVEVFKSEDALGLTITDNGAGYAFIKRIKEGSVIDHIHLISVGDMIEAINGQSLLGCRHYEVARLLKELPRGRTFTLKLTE
Sequence of LNX1_4 PDZ (Q8TBB1 638-724 limits assumed): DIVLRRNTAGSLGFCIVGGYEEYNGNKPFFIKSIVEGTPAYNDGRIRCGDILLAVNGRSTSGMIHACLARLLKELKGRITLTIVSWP
Sequence of MLLT4 PDZ (P55196 1007-1093 limits assumed): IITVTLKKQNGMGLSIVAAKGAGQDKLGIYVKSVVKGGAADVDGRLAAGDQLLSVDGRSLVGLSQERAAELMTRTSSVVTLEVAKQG
Sequence of MAGI1_4 PDZ (Q96QZ7 813-895 limits assumed): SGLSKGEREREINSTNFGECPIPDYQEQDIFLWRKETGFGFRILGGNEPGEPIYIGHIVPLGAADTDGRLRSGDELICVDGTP
Sequence of PDLIM4 PDZ (P50479 1-84 limits assumed): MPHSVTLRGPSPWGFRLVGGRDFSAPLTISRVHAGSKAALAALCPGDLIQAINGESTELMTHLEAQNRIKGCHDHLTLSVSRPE

For `CC(C)C[C@H](NC(=O)[C@@H](N)CCCNC(=N)N)C(=O)N[C@@H](CCC(N)=O)C(=O)N[C@@H](CCCNC(=N)N)C(=O)N[C@@H](CCCNC(=N)N)C(=O)N[C@@H](CCCNC(=N)N)C(=O)N[C@@H](CCC(=O)O)C(=O)N[C@H](C(=O)N[C@@H](CCC(N)=O)C(=O)N[C@H](C(=O)O)C(C)C)[C@@H](C)O` [HPV18-E6], the Kd on DLG1_2 PDZ was 1.66 µM; at SNX27 PDZ it was 28.2 µM; at LAP2 PDZ it was 245 µM; at LIN7A PDZ, 398 µM; at DLG3_2 PDZ, 3.47 µM; on ARHGEF11 PDZ it was 219 µM. Moreover, the Kd on MAGI1_4 PDZ was 52.5 µM; at MAST1 PDZ, 4.68 µM; at DLG4_3 PDZ it was 1.82 µM; on DLG3_1 PDZ it was 45.7 µM; on LRRC7 PDZ, 724 µM; on PTPN3 PDZ, 32.4 µM. Further, the Kd on DLG2_1 PDZ is 7.76 µM; on GIPC1 PDZ, 36.3 µM; on MAGI2_3 PDZ, 70.8 µM; at SCRIB2 PDZ, 36.3 µM; at TX1BP3 PDZ, 21.9 µM; at TJP2_1 PDZ, 129 µM. The Kd on MAGI2_2 PDZ was 6.92 µM; at RHPN1 PDZ it was 234 µM; on CNKSR3 PDZ it was 79.4 µM; on LNX1_4 PDZ, 93.3 µM; at FRMPD2_1 PDZ it was 79.4 µM; at PDZRN4_1 PDZ it was 33.1 µM. The Kd is 3.47 µM on DLG4_2 PDZ and 4.47 µM on SYNJ2BP PDZ.

As to SKPTRRETEV [HPV35-E6], the Kd at DLG1_2 PDZ (setting [1]) is 2.29 µM; at SNX27 PDZ it was 21.9 µM; at LAP2 PDZ (setting [1]), 204 µM; at PDLIM4 PDZ, 69.2 µM; at DLG3_2 PDZ (setting [1]) it was 3.24 µM; on ARHGEF11 PDZ (setting [1]) it was 77.6 µM. For the same molecule, the Kd on DLG4_3 PDZ (setting [1]) was 6.31 µM; at DLG3_1 PDZ (setting [1]), 35.5 µM; on LRRC7 PDZ (setting [1]) it was 257 µM; at PTPN3 PDZ (setting [1]) it was 11.7 µM; on MLLT4 PDZ, 162 µM; at DLG2_1 PDZ (sheet PPI_convert, read-out: affinity to PDZ DLG2_1 (converted)) it was 12.3 µM. Also, the Kd at GIPC1 PDZ (sheet PPI_convert, read-out: affinity to PDZ GIPC1 (converted)) is 20.4 µM; at SCRIB2 PDZ (setting [1]), 20 µM; at TX1BP3 PDZ (setting [1]) it was 11.7 µM; on MAGI2_2 PDZ (setting [1]) it was 11.7 µM; at CNKSR3 PDZ (sheet PPI_convert, read-out: affinity to PDZ CNKSR3 (converted)) it was 269 µM; at LNX1_4 PDZ (sheet PPI_convert, read-out: affinity to PDZ LNX1_4 (converted)) it was 324 µM. Further, the Kd was 324 µM at FRMPD2_1 PDZ (setting [1]), 41.7 µM at PDZRN4_1 PDZ (setting [1]), 3.09 µM at DLG4_2 PDZ (setting [1]) and 2.04 µM on SYNJ2BP PDZ (setting [1]).

Consider SRRPRTETQV [HPV31-E6], for which the Kd at DLG1_2 PDZ (setting [1]) is 1.62 µM; on SNX27 PDZ it was 22.9 µM; on LAP2 PDZ (setting [1]) it was 126 µM; on LIN7A PDZ (setting [1]) it was 309 µM; on DLG3_2 PDZ (setting [1]), 3.89 µM; at ARHGEF11 PDZ (setting [1]) it was 263 µM. Besides, the Kd at MAST1 PDZ (setting [1]) was 38 µM; on DLG4_3 PDZ (setting [1]), 7.94 µM; at DLG3_1 PDZ (setting [1]), 36.3 µM; on PTPN3 PDZ (setting [1]), 21.9 µM; on MAGI2_3 PDZ (setting [1]), 79.4 µM; at SCRIB2 PDZ (setting [1]), 41.7 µM. Moreover, the Kd at TX1BP3 PDZ (setting [1]) is 24.5 µM; on TJP2_1 PDZ (setting [1]), 219 µM; on MAGI2_2 PDZ (setting [1]), 0.417 µM; on RHPN1 PDZ (setting [1]) it was 182 µM; at PDZRN4_1 PDZ (setting [1]) it was 64.6 µM; on DLG4_2 PDZ (setting [1]), 4.37 µM. The Kd at SYNJ2BP PDZ (setting [1]) was 3.89 µM.
